Data: patent EP0218400A1, “Assay methods for chemotherapeutic agents” (DAMON BIOTECH, INC., priority 1985, dated 1987)
Read-outs that look alike come from different tables or passages of the source.

What was measured:
P388 Resistant Cells = experiment: In vivo growth of encapsulated adriamycin-resistant P388 lymphoma cells in nude mice; conditions: for inhibition at 100 mg/kg: Mus musculus, P388, iv
Method: (§1) In the experiments that follow, the drugs and other agents tested were administered to the host animal by injection at the various times called for in the protocol being tested. At various periods after treatment, the mice were killed by cervical dislocation. The peritoneal cavity of each mouse was washed with PBS or medium and floating microcapsules were aspirated using a large bore plastic Pasteur pipette. Microcapsules were transferred to 15 ml tubes and washed 3 to 4 times with PBS to remove host peritoneal cells. The washed microcapsules were aspirated into 1 ml serological pipettes, allowed to sediment, and the volume of packed microcapsules was determined. Microcapsules were then transferred to a glas dounce homogenizer (7 ml volume) and disrupted with 3 strokes of an A-tolerance plumger. Cells suspensions were filtered through nylon mesh to remove the disrupted membranes. The suspensions containing tumor cells were centrifuged and the pellet was resuspended in 0.25 to 0.5 ml of complete medium. After mixing equal volumes of cell suspension and trypan blue, viable cell counts were determined using a hemocytometer.
(§2) The number of tumor cells per 1 ml of packed microcapsules was determined as follows: a = ? where b = total number of tumor cells in the suspension, and c = total volume of microcapsules used for the preparation of this suspension.
(§3) By comparing the number of tumor cells in 1 ml of microcapsules derived from non-treated and drug-treated mice, the percent inhibition of tumor cell growth was calculated: [formula] where ac = number of tumor cells from the non-treated control microcapsules, and ae = number of tumor cells from the drug treated microcapsules.
(§4) Since drug-resistance is one of the most important causes of failure in chemotherapy, it is crucial that a predictive assay be able to distinguish between effective and non-effective drugs for particular tumors. […] One day later the mice received by i.v. administration Adriamycin (6 mg/kg), Vinblastin (1 mg/kg) or Cyclophosphamide (100 mg/kg). Five days after administration some of the mice were sacrificed, the microcapsules were recovered and the numbers of tumor cells inside the capsules were determined. The remaining mice received a second administration and the microcapsules were recovered from the remaining mice 3 days afterwards. The results are shown in Table 7 and correlate well with the known characteristics of P388 cell line and its variant.

Original P388 cells = experiment: In vivo growth of encapsulated original P388 lymphoma cells in nude mice; conditions: for inhibition at 100 mg/kg: Mus musculus, P388, iv
Method: as §1, §2, §3, §4

[1] = test system: human lung carcinoma A549 cells; experiment: In vivo susceptibility of encapsulated A549 cells; conditions: i.v. days 2, 5, 9; for No. of tumor cells per 1 ml of capsules / percent Inhibition: Adriamycin 6, BCNU 20, CY 100 mg/kg
Method: as §1, §2, §3
The sensitivity of human lung carcinoma A549 cells to the drugs was assessed 12 and 14 days after transplantation of encapsulated tumor cells. The treatments were applied i.v. 2, 5 and 9 days after microcapsule transplantation (Table 5).

MOLT-4 lymphoma cells = experiment: In vivo inhibition of encapsulated Molt-4 lymphoma growth in C57BL/6 mice; parameters: species or system human
Method: as §1, §2, §3
MOLT-4 lymphoma cells were also used in an in vivo assay. As before, the MOLT-4 cells were encapsulated and transplanted i.p. into C57BL/6 mice. On day 1 following the transplantation of the encapsulated cells, the mice were treated i.v. intravenous (i.v.) with BCNU, adriamycin or cyclophosphamide (CY). This approach allowed the testing of cyclophosphamide (CY) which is inefficient in vitro because it must be metabolized to obtain an active cytotoxic derivative. Ten days after transplantation, the encapsulated cells were retrieved and the tumor cells contained therein were counted. […]

human Melanoma LOX cells = experiment: In vivo susceptibility of encapsulated LOX melanoma cells in nude mice; conditions: for sensitivity of encapsulated LOX cells to the treatment (in words): i.v. days 1, 5, 9; for No. of viable tumor cells per 1 ml. of capsules: i.v. days 1, 5, 9, Adriamycin 6, BCNU 20, CY 100, 5-Fu 60 mg/kg
Method: as §1, §2, §3
In this series of experiments, cells of a fourth human cancer type, Melanoma LOX cells, were used. LOX cells have recently been proposed as the model for experimental treatment at the NCI Development Therapeutics Program. Following i.p. inoculation of the suspension of LOX Melanoma cells into nude mice, various drugs were administered i.v. and survival of the treated mice was determined (Schoemaker et al., Proceeding American Association for Cancer Research, 26, 1302, 1985) (mice transplanted with the non-encapsulated tumor cells were considered tumor-free if they survived during 3 months of observation). In parallel experiments encapsulated LOX Melanoma cells were transferred into nude mice and drugs were inoculated i.v. 1, 5 and 9 days at the dose and schedule utilized by the Dr. Shoemaker's procedure.

LOX Melanoma cells = conditions: i.v.; Adriamycin 6, BCNU 20, CY 100, 5-Fu 60 mg/kg; survival during 3 months of observation; nude mice; cited from earlier work
[2] = test system: human colon adenocarcinoma (HT-29) cells; experiment: In vivo growth of encapsulated HT-29 cells in C57BL/6 mice
Method: as §1, §2, §3
A second human cancer cell line was also used to further analyze in vivo effects of different drugs on the growth of tumors. Encapsulated human colon adenocarcinoma (HT-29) cells were again transplanted into C57BL/6 mice and various drugs were administered after 3 days either by intravenous or by intraperitoneal injection. Animals were sacrificed after 4 days and number of cells per capsule were counted to calculate inhibition rates for the various treatment procedures. […] In fact, 5-FU is a preferred chemotherapeutic agent for patients with gastrointestinal malignancies.

[3] = test system: MOLT-4 human lymphoma cells; experiment: In vivo sensitivity of encapsulated MOLT-4 cells in nude mice, NCI schedule; conditions: Adriamycin 6 mg/kg, 15 days after transplantation
Method: as §1, §2, §3
In the next experiment various drugs were administered in vivo according to schedules and doses typically used for screening antitumor effects of the drugs at the National Cancer Institute, Developmental Therapeutics program.
MOLT-4 human lymphoma cells were encapsulated and transplanted into peritoneum of nude mice. Doses of various drugs were applied i.v. at 1, 5 and 9 days after tumor cell transplantation.

[4] = test system: Human T cell lymphoma (MOLT-4) cells; experiment: In vitro drug pretreatment of encapsulated cells, then growth in the peritoneal cavity of mice; assay type: in vivo
Method: The encapsulated tumors are preferably incubated at 37° C in medium for 1 to 2 hours. A 25 percent (v/v) suspension can then be prepared (preferably without bovine serum). The suspension can be inoculated in the peritoneal cavity of the host animal (i.e., with a 16 gauge needle).
as §1, §2, §3
Human T cell lymphoma (MOLT-4) cells were encapsulated according to the procedures described above and incubated in vitro in RPMI I640 medium supplemented with 10 percent fetal calf serum, glutamine and antibiotics for one hour of 37°C. During incubation they were exposed to various concentrations of 1,3-B (2-chloroethyl)-1-nitrosourea (BCNU), 5-fluorouracil (5-FU) and adriamycin. The microcapsules were then washed and implanted into the peritoneal cavity (i.p.) of C57BL/6 mice (Animal Production Area NCI-Frederick Cancer Research Facility) using #18-14 needles. After seven days the mice were sacrificed and their peritoneal cavities were washed with PBS and aspirated to collect the microcapsules in a Pasteur pipette. The microcapsules were washed several times from the host peritoneal cells. The microcapsules from the individual mice were counted by transferring them into wells of a 96 well microplate. Using an inverted microscope, the numbers of microcapsules in each well were counted. Each well was washed out and microcapsules were transferred into the glass homogenizer.
Microcapsules were then disrupted, and the suspension was filtered, centrifugated and reconstituted with PBS. The concentration and total number of cells were counted using a hemocytometer.

[5] = 5 + 3 days after treatment (3 days after second administration), Adriamycin 6, Vinblastin 1, Cyclophosphamide 100 mg/kg i.v.
[6] = 5 days after treatment, i.v. one day after inoculation, Adriamycin 6, Vinblastin 1, Cyclophosphamide 100 mg/kg
[7] = Mus musculus, MOLT-4, iv, i.v. on day 1, Adriamycin 10 mg/kg, BCNU 100 mg/kg, CY 200 mg/kg, capsules retrieved ten days after transplantation
[8] = i.v. on day 1, Adriamycin 10 mg/kg, BCNU 100 mg/kg, CY 200 mg/kg, capsules retrieved ten days after transplantation
[9] = 72 h, 5 + 3 days after treatment (3 days after second administration), Adriamycin 6, Vinblastin 1, Cyclophosphamide 100 mg/kg i.v.
[10] = Mus musculus, HT-29, ip, i.p. 3 days after transplantation, 5-Fu 150 mg/kg, CY 250 mg/kg, Adriamycin 20 mg/kg, 4 days
[11] = i.p. 3 days after transplantation, 5-Fu 150 mg/kg, CY 250 mg/kg, Adriamycin 20 mg/kg, 4 days
[12] = Mus musculus, MOLT-4, iv, 360 h, i.v. days 1, 5, 9, Cyclophosphamide 100 mg/kg, 5-Fu 60 mg/kg, nude mice
[13] = i.v. days 1, 5, 9, Cyclophosphamide 100 mg/kg, 5-Fu 60 mg/kg, nude mice
[14] = 25 µg/ml in vitro for one hour, then 7 days i.p. in C57BL/6 mice
[15] = 100 µg/ml in vitro for one hour, then 7 days i.p. in C57BL/6 mice

SMILES	No. cells/ml (P388 Resistant Cells; [5])	No. cells/ml (P388 Resistant Cells; [6])	No. cells/ml (Original P388 cells; [5])	No. cells/ml (Original P388 cells; [6])	No. of tumor cells per 1 ml of capsules ([1]; 12 days after transplantation)	percent Inhibition ([1]; 12 days after transplantation) [%]	No. of tumor cells per 1 ml of capsules ([1]; 14 days after transplantation)	percent Inhibition ([1]; 14 days after transplantation) [%]	No. of cells per capsule (MOLT-4 lymphoma cells; [8])	Total No. of tumor cells (MOLT-4 lymphoma cells; [8])	sensitivity of encapsulated LOX cells to the treatment (in words) (human Melanoma LOX cells)	No. of viable tumor cells per 1 ml. of capsules (human Melanoma LOX cells)	% survived mice transplanted with nonencapsulated tumor cells (LOX Melanoma cells) [%]	No. of cells per capsule [2, 11]	Total No. of tumor cells [2, 11]	No of viable tumor cells per 1 ml of capsules [3, 13]	No. of tumor cells per capsule [4, 14]	No. of tumor cells per capsule [4, 15]	also measured
CCC1(O)CC2CN(CCc3c([nH]c4ccccc34)C(C(=O)OC)(c3cc4c(cc3OC)N(C)C3C(O)(C(=O)OC)C(OC(C)=O)C5(CC)C=CCN6CCC43C65)C2)C1 (centres unmarked) [Vinblastin]	23 x 10^6	15 x 10^6	6 x 10^6	9 x 10^6															% Inhibition (P388 Resistant Cells; [5]): 21%; % Inhibition (P388 Resistant Cells; [6]): 12%; inhibiting the growth of the drug-resistant variant (in words) (P388 Resistant Cells; Adriamycin 6 mg/kg, Vinblastin 1 mg/kg i.v.): Neither Adriamycin nor Vinblastin in the doses administered was effective; % Inhibition (Original P388 cells; [5]): 89%; % Inhibition (Original P388 cells; [6]): 60%
O=P1(N(CCCl)CCCl)NCCCO1 (centres unmarked) [CY, cyclophosphamide]	1.1 x 10^6	0.4 x 10^6	1.3 x 10^6	0.4 x 10^6	13.5 x 10^5	78	39.0 x 10^5	53	171	10 x 10^4	most sensitive	0.7 x 10^5	40	1.6 x 10^4	1.1 x 10^6	1.9 x 10^6			inhibition at 200 mg/kg (MOLT-4 lymphoma cells; [7]): 93.7%; reduction of the number of viable tumor cells in the capsules (in words) (MOLT-4 lymphoma cells; i.v. on day 1, ten days after transplantation): more effective than BCNU; inhibition at 100 mg/kg (P388 Resistant Cells; [9]): 96%; inhibition at 100 mg/kg (P388 Resistant Cells; Cyclophosphamide 100 mg/kg i.v., both time points): 96 to 98%; inhibition at 100 mg/kg (P388 Resistant Cells; [6]): 98%; inhibition at 100 mg/kg (Original P388 cells; [9]): 97%; inhibition at 100 mg/kg (Original P388 cells; [6]): 98%; inhibition at 250 mg/kg [2, 10]: 20%; inhibition at 100 mg/kg [3, 12]: 97%
O=c1[nH]cc(F)c(=O)[nH]1 [5-Fu, 5-fluorouracil]											least efficient	29 x 10^5	0	0.6 x 10^4	0.6 x 10^6	41.0 x 10^6	3 x 10^3	10^2	inhibition at 25 µg/mL ([4]; Mus musculus, MOLT-4, ip, 25 µg/ml in vitro for one hour, then 7 days i.p. in C57BL/6 mice, read-out: % Inhibition): 40%; inhibition at 100 µg/mL ([4]; Mus musculus, MOLT-4, ip, 100 µg/ml in vitro for one hour, then 7 days i.p. in C57BL/6 mice, read-out: % Inhibition): 98%; inhibition at 150 mg/kg [2, 10]: 70%; sensitivity of encapsulated HT-29 cells (in words) ([2]; in vivo): more sensitive to 5-FU than to the other drugs tested; inhibition of tumor cell proliferation (in words) ([3]; 5-FU 60 mg/kg i.v. days 1, 5, 9): significantly less efficient; inhibition at 60 mg/kg [3, 12]: 30%
O=NN(CCCl)C(=O)NCCCl [BCNU, 1,3-B (2-chloroethyl)-1-nitrosourea]					7.0 x 10^5	88	15.7 x 10^5	81	1222	27 x 10^4	most sensitive	2 x 10^5	50				1 x 10^4	0.1 x 10^4	reduction of the numbers of tumor cells (in words) [1]: more efficient in this respect than CY; inhibition at 100 mg/kg (MOLT-4 lymphoma cells; [7]): 55%; No. of tumor cells per capsule ([4]; 6 µg/ml in vitro for one hour, then 7 days i.p. in C57BL/6 mice): 1 x 10^4; inhibition at 6 µg/mL ([4]; Mus musculus, MOLT-4, ip): 86%; inhibition at 25 µg/mL ([4]; Mus musculus, MOLT-4, ip): 86%; inhibition at 100 µg/mL ([4]; Mus musculus, MOLT-4, ip): 98%
